Data set [1] has as its system Dengue Type 2. The data set can be described thus: Anti-Dengue virus cytoprotection assay, Huh-7 cells. The conditions noted are these: Huh-7, read-out: Dengue Type 2 Huh-7 Cells (EC50 uM).
Data set [2] is described as follows: Cytotoxicity (CC50) HepG2. The conditions noted are these: human, HepG2 cells.
Data set [3] in a line: Cytotoxicity in Vero cells (Dengue assay). The note with it: African green monkey.
Data set [4] is described as follows: Cytotoxicity (CC50) Huh-7. The note with it: human, Huh-7 cells.
Data set [5] can be described thus: Cytotoxicity (CC50) BxPC3. The note with it: human, BxPC3 cells.
A short description of data set [6]: Cytotoxicity in Huh-7 cells (Dengue assay). The conditions noted are these: human, Huh-7 cells.
A short description of data set [7]: Cytotoxicity (CC50) CEM. The conditions noted are these: human, CEM cells.
The test system of data set [8] is IEC-6. The data set can be described thus: Cytotoxicity (CC50) IEC-6. The data set is classed as cell-based. The note with it: IEC-6.
Data set [9] has as its system HepG2. In words: Cytotoxicity (CC50) HepG2. The note with it: read-out: Cytotoxicity (CC50 uM) HepG2; HepG2.
Data set [10] has as its system Huh-7. In words: Cytotoxicity (CC50) Huh-7. The conditions noted are these: read-out: Cytotoxicity (CC50 uM) Huh-7; Huh-7.
For data set [11], the system named is BxPC3. The data set can be described thus: Cytotoxicity (CC50) BxPC3. The conditions noted are these: read-out: Cytotoxicity (CC50 uM) BxPC3; BxPC3.
For data set [12], the system named is CEM. In words: Cytotoxicity (CC50) CEM. The conditions noted are these: read-out: Cytotoxicity (CC50 uM) CEM; CEM.
Data set [13] relates to A204. The data set can be described thus: Cytotoxicity (CC50) A204. The data set is classed as cell-based. The conditions noted are these: A204.
In data set [14] the test system is H9c. In words: Cytotoxicity (CC50) H9c. The data set is classed as cell-based. The conditions noted are these: H9c.
Data set [15] is described as follows: Cytotoxicity (CC50) IEC-6. The conditions noted are these: rat, IEC-6 cells. The data set is classed as cell-based.
In data set [16] the test system is Dengue Type 2. The data set can be described thus: Anti-Dengue virus cytoprotection assay, Vero cells. The conditions noted are these: read-out: Dengue Type 2 Vero Cells (EC50 uM).
Data set [17] is described as follows: Cytotoxicity (CC50) A204. The data set is classed as cell-based. The note with it: human, A204 cells.
The nature of data set [18]: Cytotoxicity (CC50) H9c. The data set is classed as cell-based. The conditions noted are these: rat, H9c cells.
The subject of data set [19] is Huh-7 cells. The data set can be described thus: Cytotoxicity in Huh-7 cells (Dengue assay). The conditions noted are these: read-out: CC50 uM; Cell Line Huh-7; […], 3, 4 table.
Data set [20] deals with VZV. In words: VZV antiviral assay. The data set is classed as cell-based. The note with it: Human alphaherpesvirus 3.
The test system of data set [21] is HBV. In words: HBV antiviral assay. The data set is classed as cell-based. The conditions noted are these: Hepatitis B virus. The method, then:
Ten microliters of cell culture supernatant collected on the sixth day was diluted in qPCR dilution buffer (40 μg/mL sheared salmon sperm DNA) and boiled for 15 minutes. Quantitative real time PCR was performed in […] using an Applied Biosystems 7900HT Sequence Detection System and the supporting SDS 2.4 software. Five microliters (5 μL) of boiled DNA for each sample and serial 10-fold dilutions of a quantitative DNA standard were subjected to real time Q-PCR using Platinum Quantitative PCR SuperMix-UDG (Invitrogen) and specific DNA oligonucleotide primers (IDT, Coralville, […]) HBV-AD38-qF1 (5′-[…] -3′) (SEQ ID NO: 1), HBV-AD38-qR1 (5′-AGT CCA AGA GTY CTC TTA TRY AAG ACC TT-3′) (SEQ ID NO: 2), and HBV-AD38-qP1 (5′-FAM CCG TGT GCA/ZEN/[…] -3′BHQ1) (SEQ ID NO: 3) at a final concentration of 0.2 μM for each primer in a total reaction volume of 15 μL. The HBV DNA copy number in each sample was interpolated from the standard curve by the SDS.24 software and the data were imported into an Excel spreadsheet for analysis.

In data set [22] the test system is Adenovirus. In words: Adenovirus antiviral assay. The data set is classed as cell-based. The conditions noted are these: unidentified adenovirus.
Data set [23] in a line: Cytotoxicity in PBM cells. The data set is classed as cell-based. The conditions noted are these: human, peripheral blood mononuclear cells (PBMCs), PHA-P stimulated; beside HIV.
The nature of data set [24]: Cytotoxicity in HepG2 cells (HBV assay). The note with it: human, HepG2.2.15 cells; beside HBV. The data set is classed as cell-based. As for the experimental part: The 50% cytotoxic concentration for the test materials are derived by measuring the reduction of the tetrazolium dye XTT in the treated tissue culture plates. XTT is metabolized by the mitochondrial enzyme […] to a soluble formazan product in metabolically active cells. […] The 2-4 hour incubation has been empirically determined to be within linear response range for XTT dye reduction with the indicated numbers of cells for each assay. […] Data were collected by Softmax 4.6 software and imported into an Excel spreadsheet for analysis.

Data set [25] deals with MRC-5 Cells. In words: Cytotoxicity in MRC-5 cells (HCMV, VZV assays). The data set is classed as cell-based. The note with it: beside VZV.
Data set [26] can be described thus: Cytotoxicity in MRC-5 cells (HCMV, VZV assays). The data set is classed as cell-based. The note with it: human, MRC-5 cells; beside HCMV.
Data set [27] concerns Huh-7 cells. The data set can be described thus: Cytotoxicity in Huh-7 cells (Adenovirus, HSV-1 assays). The data set is classed as cell-based, human. The note with it: beside HSV-1.
Data set [28] concerns HSV-1. In words: HSV-1 antiviral assay. The data set is classed as cell-based. The conditions noted are these: Human alphaherpesvirus 1.
Data set [29] concerns HCMV. In words: HCMV antiviral assay. The data set is classed as cell-based. The note with it: Human betaherpesvirus 5.
The test system of data set [30] is HIV. In words: HIV infected PBMC assay. The data set is classed as cell-based. The conditions noted are these: Human immunodeficiency virus 1, PBMC. The method, then: Fresh human peripheral blood mononuclear cells (PBMCs) were obtained from a commercial source (Biological Specialty) and were determined to be seronegative for HIV and HBV. Depending on the volume of donor blood received, the leukophoresed blood cells were washed several times with PBS. After washing, the leukophoresed blood was diluted 1:1 with Dulbecco's phosphate buffered saline (PBS) and layered over 15 mL of Ficoll-Hypaque density gradient in a 50 ml conical centrifuge tube. These tubes were centrifuged for 30 min at 600 g. Banded PBMCs were gently aspirated from the resulting interface and washed three times with PBS. […] After incubation, PBMCs were centrifuged and resuspended in tissue culture medium. The cultures were maintained until use by half-volume culture changes with fresh IL-2 containing tissue culture medium every 3 days. […]
Following addition of test compound to the wells, 50 uL of a predetermined dilution of HIV virus (prepared from 4× of final desired in-well concentration) was added, and mixed well. […] After 7 days in culture, HIV-1 replication was quantified in the tissue culture supernatant by measurement of reverse transcriptase (RT) activity. […]
Reverse Transcriptase Activity Assay—Reverse transcriptase activity was measured in cell-free supernatants using a standard radioactive incorporation polymerization assay. […]

The term EC50 denotes the concentration needed to bring the measured effect to its halfway point. By CC50 is commonly meant the concentration giving 50% cytotoxicity. Take `CC1(O)[C@@H](O)[C@@H](CO)O[C@H]1n1ccc(=O)[nH]c1=S` (some centres unmarked): the EC50 in [1] is above 100 µM. For the same molecule, the CC50 in [2] is above 400 µM; in [3], above 100 µM; in data set [4], above 100 µM; in data set [5] it was above 100 µM; in data set [6], above 100 µM; in data set [7], above 200 µM.

On to `CC(C)OC(=O)[C@H](C)NP(=O)(OC[C@H]1O[C@@H](n2ccc(=O)[nH]c2=S)[C@](C)(O)C1O)Oc1ccccc1` (some centres unmarked) [drawing 366], for which the CC50 in data set [8] was above 200 µM; in [9], above 400 µM; in [10] it was above 400 µM; in data set [11], above 300 µM; in [12], above 300 µM; in data set [13], 98 µM. In addition, the CC50 in [14] is above 200 µM.

With `CC(C)OC(=O)[C@H](C)NP(=O)(OC[C@H]1O[C@@H](n2ccc(=O)[nH]c2=S)[C@](C)(O)C1O)Oc1ccccc1` (some centres unmarked) [drawing 369], the CC50 in data set [8] is above 200 µM; in [11], above 300 µM; in [13], 98 µM.

In the case of `CC(C)OC(=O)[C@H](C)NP(=O)(OC[C@H]1O[C@@H](n2ccc(=O)[nH]c2=S)C(C)(O)[C@H]1O)Oc1ccccc1` (some centres unmarked) [drawing 387], the CC50 in data set [15] is above 200 µM; in data set [2] it was above 400 µM; in data set [3] it was above 100 µM; in data set [4], above 400 µM; in data set [5] it was above 300 µM; in data set [6], above 100 µM. Besides, the CC50 in data set [7] was above 300 µM; in data set [17] it was 98 µM; in data set [18] it was above 200 µM. Further, the 50% effective concentration (EC50) in data set [1] came out at 5.1 µM; in data set [16], 2.02 µM.

As for `CC(C)OC(=O)[C@H](C)N[P@](=O)(OC[C@H]1O[C@@H](n2ccc(=O)[nH]c2=S)C(C)(O)[C@H]1O)Oc1ccccc1` (some centres unmarked) [drawing 388], the EC50 in [1] came to 5.62 µM; in data set [16], 2.35 µM. In addition, the CC50 is above 400 µM in data set [2]; above 100 µM in data set [3]; 252 µM in data set [4]; above 100 µM in data set [6]; above 400 µM in [7].

Take `CC(C)OC(=O)[C@H](C)N[P@](=O)(OC[C@H]1O[C@@H](n2ccc(=O)[nH]c2=S)C(C)(O)[C@H]1O)Oc1ccccc1` (some centres unmarked) [drawing 393]: the half-maximal cytotoxic concentration (CC50) in [19] is above 100 µM.

For the molecule `CC(C)OC(=O)[C@H](C)NP(=O)(OC[C@H]1O[C@@H](n2ccc(=O)[nH]c2=S)C(C)(O)[C@H]1O)Oc1ccccc1` (some centres unmarked) [drawing 394], the concentration giving a half-maximal response (EC50) in [20], in [21], in data set [22], in data set [28], in data set [29] and in [30] was above 100 µM in each case. In [23], the CC50 at 7 days is above 100 µM. For the same molecule, the CC50 at 6 days in data set [24] was above 100 µM. Besides, the half-maximal cytotoxic concentration (CC50) in [25], in data set [26] and in data set [27] was above 100 µM in each case.
